From ChEMBL document CHEMBL4507276 (2021)

Key:
Conditions in all cases: Compound concentration 1000.0 nM
[1] = biological target: Mitogen-activated protein kinase 14 (Homo sapiens) (UniProt Q16539)
[2] = biological target: Cyclin-dependent kinase 5 (Homo sapiens) (UniProt Q00535)
[3] = biological target: AP2-associated protein kinase 1 (Homo sapiens) (UniProt Q2M2I8)
[4] = biological target: RAC-gamma serine/threonine-protein kinase (Homo sapiens) (UniProt Q9Y243)
[5] = biological target: T1, Serine/threonine-protein kinase 17A (Homo sapiens) (UniProt Q9UEE5)
T1 sequence (whole entry): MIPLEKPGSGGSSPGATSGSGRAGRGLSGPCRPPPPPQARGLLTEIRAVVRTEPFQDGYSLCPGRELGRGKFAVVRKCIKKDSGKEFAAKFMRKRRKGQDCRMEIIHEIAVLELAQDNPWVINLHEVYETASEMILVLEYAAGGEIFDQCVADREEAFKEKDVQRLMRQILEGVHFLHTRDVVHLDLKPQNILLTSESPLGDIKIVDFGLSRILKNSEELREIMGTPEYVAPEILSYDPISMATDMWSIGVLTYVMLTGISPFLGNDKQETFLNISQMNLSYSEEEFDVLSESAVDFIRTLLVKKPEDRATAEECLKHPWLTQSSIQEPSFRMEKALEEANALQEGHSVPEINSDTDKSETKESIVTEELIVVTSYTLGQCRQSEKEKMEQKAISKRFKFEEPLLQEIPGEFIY

[6] = biological target: Serine/threonine-protein kinase LATS1 (Homo sapiens) (UniProt O95835)
[7] = system: Mast/stem cell growth factor receptor Kit (Homo sapiens), P10721 [V559D,V654A]
[8] = biological target: T2, Mitogen-activated protein kinase kinase kinase 3 (Homo sapiens) (UniProt Q99759)
T2 sequence (whole entry): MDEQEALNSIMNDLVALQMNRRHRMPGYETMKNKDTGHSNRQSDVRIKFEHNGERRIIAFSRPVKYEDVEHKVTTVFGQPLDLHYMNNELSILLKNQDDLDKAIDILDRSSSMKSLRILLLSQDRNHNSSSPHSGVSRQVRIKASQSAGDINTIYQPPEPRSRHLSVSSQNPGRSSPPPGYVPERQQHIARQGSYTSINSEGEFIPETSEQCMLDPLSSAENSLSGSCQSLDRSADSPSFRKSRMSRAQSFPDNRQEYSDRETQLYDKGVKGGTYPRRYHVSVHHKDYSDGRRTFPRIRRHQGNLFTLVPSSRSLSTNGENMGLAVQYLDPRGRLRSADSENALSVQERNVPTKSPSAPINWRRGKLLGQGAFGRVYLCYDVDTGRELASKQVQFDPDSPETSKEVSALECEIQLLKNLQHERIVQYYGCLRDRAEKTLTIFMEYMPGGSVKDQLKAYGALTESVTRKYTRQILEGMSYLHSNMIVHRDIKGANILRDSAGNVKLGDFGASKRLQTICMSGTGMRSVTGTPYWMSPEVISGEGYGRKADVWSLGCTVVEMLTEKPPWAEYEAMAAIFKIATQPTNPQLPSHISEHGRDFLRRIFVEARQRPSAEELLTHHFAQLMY

[9] = biological target: Serine/threonine-protein kinase PAK 3 (Homo sapiens) (UniProt O75914)
[10] = biological target: T3, Testis-specific serine/threonine-protein kinase 3 (Homo sapiens) (UniProt Q96PN8)
T3 sequence (whole entry): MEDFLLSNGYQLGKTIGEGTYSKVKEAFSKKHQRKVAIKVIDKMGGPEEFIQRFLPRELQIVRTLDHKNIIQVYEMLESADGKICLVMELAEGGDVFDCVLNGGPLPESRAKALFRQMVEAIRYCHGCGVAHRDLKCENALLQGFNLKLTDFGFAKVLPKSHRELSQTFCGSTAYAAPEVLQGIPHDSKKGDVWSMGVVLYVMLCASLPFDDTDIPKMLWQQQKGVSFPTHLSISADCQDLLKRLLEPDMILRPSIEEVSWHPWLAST

[11] = biological target: Phosphatidylinositol 4,5-bisphosphate 3-kinase catalytic subunit beta isoform (Homo sapiens) (UniProt P42338)
[12] = biological target: Serine/threonine-protein kinase N1 (Homo sapiens) (UniProt Q16512)
[13] = biological target: Mitogen-activated protein kinase kinase kinase 12 (Homo sapiens) (UniProt Q12852)
[14] = biological target: Mitogen-activated protein kinase kinase kinase 4 (Homo sapiens) (UniProt Q9Y6R4)

Measured: residual activity

Chain of Serine/threonine-protein kinase LATS1 (Homo sapiens) (O95835 whole entry): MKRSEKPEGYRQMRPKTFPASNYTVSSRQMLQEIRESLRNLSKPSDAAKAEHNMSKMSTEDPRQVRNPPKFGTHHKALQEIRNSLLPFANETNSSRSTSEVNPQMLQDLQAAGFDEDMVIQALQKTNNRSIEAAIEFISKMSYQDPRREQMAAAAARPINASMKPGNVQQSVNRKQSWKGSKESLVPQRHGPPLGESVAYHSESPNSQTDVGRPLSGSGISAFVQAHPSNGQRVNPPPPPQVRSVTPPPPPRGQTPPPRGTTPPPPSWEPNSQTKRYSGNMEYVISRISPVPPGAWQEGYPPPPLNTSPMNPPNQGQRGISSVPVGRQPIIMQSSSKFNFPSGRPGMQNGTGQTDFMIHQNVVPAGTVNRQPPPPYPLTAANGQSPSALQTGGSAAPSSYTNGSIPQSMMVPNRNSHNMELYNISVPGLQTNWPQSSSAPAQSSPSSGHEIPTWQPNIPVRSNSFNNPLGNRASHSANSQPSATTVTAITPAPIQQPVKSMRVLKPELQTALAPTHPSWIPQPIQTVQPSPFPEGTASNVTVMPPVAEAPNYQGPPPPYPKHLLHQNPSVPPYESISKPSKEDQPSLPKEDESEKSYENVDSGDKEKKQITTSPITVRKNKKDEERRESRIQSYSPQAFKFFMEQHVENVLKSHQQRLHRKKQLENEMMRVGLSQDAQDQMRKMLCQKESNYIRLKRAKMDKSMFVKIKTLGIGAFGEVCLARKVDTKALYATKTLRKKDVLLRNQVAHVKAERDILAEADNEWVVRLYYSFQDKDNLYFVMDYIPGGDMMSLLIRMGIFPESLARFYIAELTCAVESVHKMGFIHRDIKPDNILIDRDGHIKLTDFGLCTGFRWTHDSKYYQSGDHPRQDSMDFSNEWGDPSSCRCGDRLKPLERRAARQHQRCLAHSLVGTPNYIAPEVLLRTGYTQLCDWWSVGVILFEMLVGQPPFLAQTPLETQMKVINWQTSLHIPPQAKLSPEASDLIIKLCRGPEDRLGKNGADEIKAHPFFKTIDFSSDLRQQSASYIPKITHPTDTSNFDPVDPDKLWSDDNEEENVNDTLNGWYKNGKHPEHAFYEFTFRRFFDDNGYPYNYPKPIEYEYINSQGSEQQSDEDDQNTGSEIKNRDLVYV
Chain of Mitogen-activated protein kinase kinase kinase 12 (Homo sapiens) (Q12852 whole entry): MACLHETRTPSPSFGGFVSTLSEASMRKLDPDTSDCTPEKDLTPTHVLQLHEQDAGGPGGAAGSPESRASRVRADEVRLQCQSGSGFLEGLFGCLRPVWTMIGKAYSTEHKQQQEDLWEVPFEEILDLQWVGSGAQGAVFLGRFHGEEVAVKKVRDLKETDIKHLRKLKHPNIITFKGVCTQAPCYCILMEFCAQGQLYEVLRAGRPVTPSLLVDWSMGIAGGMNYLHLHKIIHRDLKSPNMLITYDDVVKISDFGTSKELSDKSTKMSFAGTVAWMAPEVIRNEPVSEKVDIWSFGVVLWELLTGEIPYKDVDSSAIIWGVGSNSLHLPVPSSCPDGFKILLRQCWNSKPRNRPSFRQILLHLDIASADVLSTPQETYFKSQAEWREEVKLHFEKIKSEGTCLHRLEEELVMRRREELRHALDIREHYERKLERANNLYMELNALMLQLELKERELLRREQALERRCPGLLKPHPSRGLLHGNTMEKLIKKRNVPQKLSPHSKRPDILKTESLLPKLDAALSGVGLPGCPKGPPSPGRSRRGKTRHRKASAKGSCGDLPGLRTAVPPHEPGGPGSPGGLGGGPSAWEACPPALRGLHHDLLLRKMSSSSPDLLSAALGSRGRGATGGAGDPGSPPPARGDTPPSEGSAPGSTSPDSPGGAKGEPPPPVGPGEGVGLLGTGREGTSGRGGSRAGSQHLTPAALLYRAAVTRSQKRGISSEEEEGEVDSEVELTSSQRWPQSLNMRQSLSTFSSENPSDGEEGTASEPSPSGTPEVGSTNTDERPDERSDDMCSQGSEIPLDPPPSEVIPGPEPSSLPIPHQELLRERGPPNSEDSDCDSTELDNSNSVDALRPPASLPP
Chain of Mast/stem cell growth factor receptor Kit (Homo sapiens), P10721 [V559D,V654A] (P10721 whole entry V559D/V654A): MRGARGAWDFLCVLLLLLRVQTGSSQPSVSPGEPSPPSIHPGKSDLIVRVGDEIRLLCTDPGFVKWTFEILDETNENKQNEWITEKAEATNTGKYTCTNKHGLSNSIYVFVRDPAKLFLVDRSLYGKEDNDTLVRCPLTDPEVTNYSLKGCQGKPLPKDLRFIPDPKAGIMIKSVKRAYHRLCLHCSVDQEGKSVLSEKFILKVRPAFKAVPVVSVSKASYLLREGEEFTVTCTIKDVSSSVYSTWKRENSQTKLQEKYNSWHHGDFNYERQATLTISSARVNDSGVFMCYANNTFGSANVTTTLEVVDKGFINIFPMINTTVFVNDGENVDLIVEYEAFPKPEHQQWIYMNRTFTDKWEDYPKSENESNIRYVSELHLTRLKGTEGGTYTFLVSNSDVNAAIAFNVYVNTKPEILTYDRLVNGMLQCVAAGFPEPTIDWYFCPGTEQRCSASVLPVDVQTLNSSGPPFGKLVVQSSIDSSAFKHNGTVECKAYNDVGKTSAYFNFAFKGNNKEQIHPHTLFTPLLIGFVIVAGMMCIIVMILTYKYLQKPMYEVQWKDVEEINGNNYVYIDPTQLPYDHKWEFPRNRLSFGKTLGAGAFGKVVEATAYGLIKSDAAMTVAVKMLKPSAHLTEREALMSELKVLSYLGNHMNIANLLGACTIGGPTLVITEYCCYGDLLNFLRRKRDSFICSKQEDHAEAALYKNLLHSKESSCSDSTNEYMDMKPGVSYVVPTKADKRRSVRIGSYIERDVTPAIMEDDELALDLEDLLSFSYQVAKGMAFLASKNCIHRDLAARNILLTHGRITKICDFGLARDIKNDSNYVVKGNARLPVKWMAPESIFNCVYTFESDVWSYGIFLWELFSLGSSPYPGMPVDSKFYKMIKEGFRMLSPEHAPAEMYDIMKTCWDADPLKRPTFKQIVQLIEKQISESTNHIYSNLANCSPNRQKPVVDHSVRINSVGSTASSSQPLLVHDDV
Chain of Phosphatidylinositol 4,5-bisphosphate 3-kinase catalytic subunit beta isoform (Homo sapiens) (P42338 whole entry, looked up, canonical isoform): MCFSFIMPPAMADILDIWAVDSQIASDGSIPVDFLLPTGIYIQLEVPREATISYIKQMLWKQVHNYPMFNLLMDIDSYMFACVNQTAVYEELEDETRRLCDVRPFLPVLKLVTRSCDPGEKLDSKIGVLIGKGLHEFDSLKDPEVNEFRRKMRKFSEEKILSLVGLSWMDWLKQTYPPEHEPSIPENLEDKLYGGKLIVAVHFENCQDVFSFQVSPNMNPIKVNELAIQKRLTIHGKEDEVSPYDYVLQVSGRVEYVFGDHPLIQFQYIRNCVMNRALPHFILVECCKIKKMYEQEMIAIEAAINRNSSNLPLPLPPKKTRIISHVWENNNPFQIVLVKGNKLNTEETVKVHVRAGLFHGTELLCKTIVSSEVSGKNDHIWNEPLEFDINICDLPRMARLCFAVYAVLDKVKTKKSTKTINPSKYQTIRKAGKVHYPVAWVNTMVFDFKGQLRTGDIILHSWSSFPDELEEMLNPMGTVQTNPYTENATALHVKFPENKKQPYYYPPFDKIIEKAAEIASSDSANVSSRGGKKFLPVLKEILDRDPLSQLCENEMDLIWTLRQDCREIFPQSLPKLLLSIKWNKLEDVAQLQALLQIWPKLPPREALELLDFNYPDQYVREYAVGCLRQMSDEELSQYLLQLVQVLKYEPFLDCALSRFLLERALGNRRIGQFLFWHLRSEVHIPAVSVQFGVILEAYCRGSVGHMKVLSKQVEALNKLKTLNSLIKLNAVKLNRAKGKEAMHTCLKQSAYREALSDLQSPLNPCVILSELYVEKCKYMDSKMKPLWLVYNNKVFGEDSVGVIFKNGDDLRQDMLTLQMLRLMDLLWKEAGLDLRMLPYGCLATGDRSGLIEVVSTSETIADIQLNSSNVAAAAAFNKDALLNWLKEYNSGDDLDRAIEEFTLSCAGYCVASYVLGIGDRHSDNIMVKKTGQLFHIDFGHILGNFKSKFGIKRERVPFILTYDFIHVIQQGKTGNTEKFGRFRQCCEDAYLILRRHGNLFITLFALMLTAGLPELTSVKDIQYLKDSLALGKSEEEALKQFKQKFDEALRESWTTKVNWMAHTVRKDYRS
Chain of Mitogen-activated protein kinase 14 (Homo sapiens) (Q16539 whole entry): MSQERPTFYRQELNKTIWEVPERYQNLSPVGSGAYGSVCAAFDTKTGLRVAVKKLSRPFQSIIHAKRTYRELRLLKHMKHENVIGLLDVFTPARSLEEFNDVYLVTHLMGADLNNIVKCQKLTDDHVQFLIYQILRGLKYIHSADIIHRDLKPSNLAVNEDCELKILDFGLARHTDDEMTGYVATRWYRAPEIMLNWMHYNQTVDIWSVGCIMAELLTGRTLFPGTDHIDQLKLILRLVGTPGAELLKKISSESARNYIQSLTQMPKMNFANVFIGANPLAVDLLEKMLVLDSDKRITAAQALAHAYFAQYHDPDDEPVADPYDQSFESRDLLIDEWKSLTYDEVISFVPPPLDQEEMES
Chain of Cyclin-dependent kinase 5 (Homo sapiens) (Q00535 whole entry, looked up): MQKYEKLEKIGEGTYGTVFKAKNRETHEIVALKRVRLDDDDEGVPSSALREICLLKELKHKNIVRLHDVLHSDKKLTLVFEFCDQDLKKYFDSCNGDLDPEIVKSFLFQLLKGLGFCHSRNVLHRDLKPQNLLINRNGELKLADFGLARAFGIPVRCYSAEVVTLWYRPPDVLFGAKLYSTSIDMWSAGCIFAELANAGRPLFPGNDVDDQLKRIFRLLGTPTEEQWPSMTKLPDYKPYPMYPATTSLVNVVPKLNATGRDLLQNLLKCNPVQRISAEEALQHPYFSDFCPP

CN(C)C(=O)Cn1cc(-c2nc(C3(c4ccc(-c5cnc(N)nc5)cc4)CC3)no2)cn1 [BI 0153]
inactive: [1] 100% | [2] 100% | [3] 100% | [4] 87% | [5] 100% | [6] 100% | [7] 100% | [8] 81% | [9] 82% | [10] 97% | [11] 96% | [12] 84% | [13] 100% | [14] 92%

CN(C)C(=O)Cn1cc(-c2nc([C@@](C)(c3ccc(-c4cnc(N)nc4)cc3)C3CC3)no2)cn1 [BI 665915]
inactive: [1] 90% | [2] 100% | [3] 100% | [4] 100% | [5] 100% | [6] 93% | [7] 93% | [8] 86% | [9] 87% | [10] 68% | [11] 100% | [12] 99% | [13] 80% | [14] 91%
